Data on 20 molecules can be found in US20260325533A1, “CDK INHIBITOR COMPOUNDS” (ALEKSIA THERAPEUTICS, INC., priority 2023, published 2026).

Holding throughout (assay type): biochemical
One experiment addresses CDK2/CCNE1 (Homo sapiens, UniProt P24941). Kind of experiment: CDK2 homogeneous time-resolved fluorescence (HTRF) kinase assay. To be noted: CDK2/CCNE. In a few lines: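 CDK2/CCNE1 (3 nM) preincubated 20 min at 23 °C with compound, then reacted 60 min at 23 °C with 1 mM ATP and 50 nM ULight-4E-BP1 (Thr37/46) peptide. Stopped with EDTA, phospho-peptide detected by Eu-anti-phospho antibody (665 nm or 665/615 ratio). IC50 from 11-point half-log titrations typically starting at 10 μM.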

The next experiment addresses CDK1/CCNB1 (Homo sapiens, UniProt P06493). The experiment can be described thus: CDK1 homogeneous time-resolved fluorescence (HTRF) kinase assay. As to conditions: CDK1/CCNB. In a few lines: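 Kinase activity is measured as Lance signal (665 nm, or 665/615 nm ratio) from europium-labelled anti-phospho-Thr37/46 antibody binding ULight-4E-BP1 peptide. Reactions contain 0.5 nM enzyme, 1 mM ATP, 1% DMSO and run 60 min at 23 °C before EDTA quench.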
For orientation: In TR-FRET formats the signal depends on donor and acceptor labels being close together.

The next experiment addresses CDK4/CCND3 (Homo sapiens, UniProt P11802). Kind of experiment: CDK4 homogeneous time-resolved fluorescence (HTRF) kinase assay. To be noted: CDK4/CCND. In outline:
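Inhibition of CDK4/CCND3 (1.5 nM) was measured at high ATP (1 mM) using 50 nM ULight-labelled 4E-BP1 Thr37/46 peptide; detection used 2 nM europium anti-phospho antibody after EDTA quench. IC50 values came from 11-point half-log titrations typically starting at 10 μM.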

Another experiment has as its target CDK6/CCND1 (Homo sapiens, UniProt Q00534). Kind of experiment: CDK6 homogeneous time-resolved fluorescence (HTRF) kinase assay. As to conditions: CDK6/CCND, 1 mM ATP. In a few lines:
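1 nM enzyme, 1 mM ATP, 50 nM ULight-4E-BP1 (Thr37/46) peptide, 1% DMSO; 20 min compound preincubation, 60 min reaction, 23 °C. EDTA stop, 2 nM Eu-anti-phospho-4E-BP1 antibody 60 min. TR-FRET 665 nm (or 665/615 ratio); IC50 from 11-point half-log titration, top 10 μM.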

The mark [1] stands for this setting: 25-250 nM, read-out: CDK2/CCNE IC50, 25-250 nM.
[2] abbreviates: >250 nM, read-out: CDK1/CCNB IC50 >250 nM.
[3] abbreviates: >250 nM, read-out: CDK4/CCND IC50, >250 nM.
The mark [4] stands for this setting: >250 nM, read-out: CDK6/CCND IC50, >250 nM.
Setting [5] is: >250 nM, read-out: CDK2/CCNE IC50, >250 nM.
[6] abbreviates: <25 nM, read-out: CDK2/CCNE IC50, <25 nM.
The mark [7] stands for this setting: 25-250 nM, read-out: CDK4/CCND IC50, 25-250 nM.
The mark [8] stands for this setting: 25-250 nM, read-out: CDK6/CCND IC50, 25-250 nM.

Each structure is given as a SMILES string. pIC50: −log10 of the molar value. Like-named read-outs stand apart in the source and are kept apart here.

CDK4/CCND3, sequence (P11802 whole entry): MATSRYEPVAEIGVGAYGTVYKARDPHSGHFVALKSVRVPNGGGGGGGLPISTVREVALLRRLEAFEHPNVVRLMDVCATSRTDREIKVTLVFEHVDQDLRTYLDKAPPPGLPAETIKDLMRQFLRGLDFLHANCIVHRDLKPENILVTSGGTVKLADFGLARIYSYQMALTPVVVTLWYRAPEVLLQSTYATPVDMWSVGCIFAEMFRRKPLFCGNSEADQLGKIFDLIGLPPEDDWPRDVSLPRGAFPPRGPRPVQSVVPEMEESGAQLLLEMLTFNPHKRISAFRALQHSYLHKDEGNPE
CDK4/CCND3, sequence (P30281 whole entry partner): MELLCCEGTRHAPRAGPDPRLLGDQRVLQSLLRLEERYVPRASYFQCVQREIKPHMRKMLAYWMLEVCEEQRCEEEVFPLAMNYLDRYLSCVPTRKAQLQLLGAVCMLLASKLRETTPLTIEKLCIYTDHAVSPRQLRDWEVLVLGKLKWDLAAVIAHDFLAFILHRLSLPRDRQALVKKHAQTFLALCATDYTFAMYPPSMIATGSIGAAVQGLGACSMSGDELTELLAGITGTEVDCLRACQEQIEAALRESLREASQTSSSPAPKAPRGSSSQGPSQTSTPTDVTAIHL
CDK1/CCNB1, sequence (P06493 whole entry): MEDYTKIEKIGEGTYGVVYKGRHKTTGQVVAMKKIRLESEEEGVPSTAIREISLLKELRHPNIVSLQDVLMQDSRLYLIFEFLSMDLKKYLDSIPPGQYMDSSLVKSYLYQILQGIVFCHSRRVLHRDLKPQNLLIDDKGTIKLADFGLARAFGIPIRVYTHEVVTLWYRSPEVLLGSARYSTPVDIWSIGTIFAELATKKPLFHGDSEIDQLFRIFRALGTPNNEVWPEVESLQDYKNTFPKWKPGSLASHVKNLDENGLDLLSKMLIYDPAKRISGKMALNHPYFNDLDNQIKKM
CDK1/CCNB1, sequence (P14635 whole entry partner): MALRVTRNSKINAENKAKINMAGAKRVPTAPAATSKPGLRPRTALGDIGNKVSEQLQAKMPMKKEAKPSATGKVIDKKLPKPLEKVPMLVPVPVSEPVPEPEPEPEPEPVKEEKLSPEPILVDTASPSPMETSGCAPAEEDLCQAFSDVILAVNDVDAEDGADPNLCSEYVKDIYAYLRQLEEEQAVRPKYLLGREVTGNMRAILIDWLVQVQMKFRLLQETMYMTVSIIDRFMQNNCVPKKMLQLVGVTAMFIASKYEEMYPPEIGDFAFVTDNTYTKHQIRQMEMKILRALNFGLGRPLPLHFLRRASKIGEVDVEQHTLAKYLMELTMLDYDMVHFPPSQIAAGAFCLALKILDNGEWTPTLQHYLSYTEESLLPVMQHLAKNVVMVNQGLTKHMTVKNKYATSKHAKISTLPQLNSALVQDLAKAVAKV
CDK6/CCND1, sequence (Q00534 whole entry): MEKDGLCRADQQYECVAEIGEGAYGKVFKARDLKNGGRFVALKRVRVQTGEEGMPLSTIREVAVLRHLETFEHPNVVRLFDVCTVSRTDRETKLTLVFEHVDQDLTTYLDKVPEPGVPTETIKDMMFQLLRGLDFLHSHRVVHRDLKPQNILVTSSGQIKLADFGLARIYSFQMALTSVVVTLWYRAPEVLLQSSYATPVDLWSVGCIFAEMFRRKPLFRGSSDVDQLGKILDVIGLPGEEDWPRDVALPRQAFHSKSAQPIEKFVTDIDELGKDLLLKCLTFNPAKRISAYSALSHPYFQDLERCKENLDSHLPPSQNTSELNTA
CDK6/CCND1, sequence (P24385 whole entry partner): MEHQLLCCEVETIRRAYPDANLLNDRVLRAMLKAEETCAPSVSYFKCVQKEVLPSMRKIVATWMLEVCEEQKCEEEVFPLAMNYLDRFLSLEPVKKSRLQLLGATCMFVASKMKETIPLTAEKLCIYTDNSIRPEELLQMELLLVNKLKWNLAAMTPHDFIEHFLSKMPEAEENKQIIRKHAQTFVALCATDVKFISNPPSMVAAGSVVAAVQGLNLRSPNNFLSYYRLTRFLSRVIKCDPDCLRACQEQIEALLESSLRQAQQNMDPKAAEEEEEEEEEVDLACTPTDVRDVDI

On to `CS(=O)(=O)c1ccc(Nc2cc3c(C#Cc4ccc5c(c4)OCO5)nccc3cn2)cc1` [Ex 857, 5-(benzo[d][1,3]dioxol-5-ylethynyl)-N-(4-(methylsulfonyl)phenyl)-2,6-naphthyridin-3-amine], for which the pIC50 is 6.60 to 7.60 at CDK2/CCNE1 (setting [1]), under 6.60 at CDK1/CCNB1 (setting [2]), under 6.60 at CDK4/CCND3 (setting [3]) and under 6.60 at CDK6/CCND1 (setting [4]).

Turning to `CSc1ccc(C#Cc2nccc3cnc(Nc4ccc(S(C)(=O)=O)cc4)cc23)cc1` [Ex 858, N-(4-(methylsulfonyl)phenyl)-5-((4-(methylthio)phenyl)ethynyl)-2,6-naphthyridin-3-amine], the pIC50 on CDK2/CCNE1 (setting [1]) was 6.60 to 7.60; on CDK1/CCNB1 (setting [2]), under 6.60; at CDK4/CCND3 (setting [3]) it was under 6.60; on CDK6/CCND1 (setting [4]), under 6.60.

On to `Cn1cc2ccc(C#Cc3nccc4cnc(Nc5ccc(S(C)(=O)=O)cc5)cc34)cc2n1` [Ex 859, 5-((2-methyl-2H-indazol-6-yl)ethynyl)-N-(4-(methylsulfonyl)phenyl)-2,6-naphthyridin-3-amine], for which the pIC50 at CDK2/CCNE1 (setting [1]) is 6.60 to 7.60; at CDK1/CCNB1 (setting [2]), under 6.60; on CDK4/CCND3 (setting [3]) it was under 6.60; at CDK6/CCND1 (setting [4]), under 6.60.

As to `CS(=O)(=O)c1ccc(Nc2cc3c(C#Cc4cc(F)c5cn[nH]c5c4)nccc3cn2)cc1` [Ex 860, 5-((4-fluoro-1H-indazol-6-yl)ethynyl)-N-(4-(methylsulfonyl)phenyl)-2,6-naphthyridin-3-amine], the pIC50 on CDK2/CCNE1 (setting [5]), on CDK1/CCNB1 (setting [2]), on CDK4/CCND3 (setting [3]) and at CDK6/CCND1 (setting [4]) was under 6.60 throughout.

`CS(=O)(=O)c1ccc(Nc2cc3c(C#Cc4ccc5c(O)ncnc5c4)nccc3cn2)cc1` [Ex 861, 7-((7-((4-(methylsulfonyl)phenyl)amino)-2,6-naphthyridin-1-yl)ethynyl)quinazolin-4-ol]: the pIC50 on CDK2/CCNE1 (setting [1]) is 6.60 to 7.60; at CDK1/CCNB1 (setting [2]) it was under 6.60; on CDK4/CCND3 (setting [3]) it was under 6.60; at CDK6/CCND1 (setting [4]), under 6.60.

Take `CN1CCN(c2ccc(C#Cc3nccc4cnc(Nc5ccc(S(=O)(=O)Nc6ncccn6)cc5)cc34)cc2)CC1` [Ex 864, 4-((5-((4-(4-methylpiperazin-1-yl)phenyl)ethynyl)-2,6-naphthyridin-3-yl)amino)-N-(pyrimidin-2-yl)benzenesulfonamide]: the pIC50 at CDK2/CCNE1 (setting [1]) was 6.60 to 7.60; on CDK1/CCNB1 (setting [2]), under 6.60; on CDK4/CCND3 (setting [3]), under 6.60; on CDK6/CCND1 (setting [4]), under 6.60.

For the molecule `C[C@H]1CN(c2cc(Nc3cc4c(C#Cc5ccc(=O)[nH]n5)nccc4cn3)cnc2O)CCN1C` [Ex 865, (S)-6-((7-((5-(3,4-dimethylpiperazin-1-yl)-6-hydroxypyridin-3-yl)amino)-2,6-naphthyridin-1-yl)ethynyl)pyridazin-3(2H)-one], the pIC50 is 6.60 to 7.60 on CDK2/CCNE1 (setting [1]), under 6.60 at CDK1/CCNB1 (setting [2]), under 6.60 at CDK4/CCND3 (setting [3]) and under 6.60 on CDK6/CCND1 (setting [4]).

Regarding `O=c1ccc(C#Cc2nccc3cnc(Nc4cnc(O)c(N5CCN(CCO)CC5)c4)cc23)n[nH]1` [Ex 866, 6-((7-((6-hydroxy-5-(4-(2-hydroxyethyl)piperazin-1-yl)pyridin-3-yl)amino)-2,6-naphthyridin-1-yl)ethynyl)pyridazin-3(2H)-one], the pIC50 was 6.60 to 7.60 on CDK2/CCNE1 (setting [1]), under 6.60 on CDK1/CCNB1 (setting [2]), under 6.60 on CDK4/CCND3 (setting [3]) and under 6.60 on CDK6/CCND1 (setting [4]).

As for `Cc1c(-c2nccc3cnc(Nc4ccc(S(=O)(=O)Nc5nccn5C)cc4)cc23)ccc2c1cnn2CC(C)(C)O` [Ex 867, 4-((5-(1-(2-hydroxy-2-methylpropyl)-4-methyl-1H-indazol-5-yl)-2,6-naphthyridin-3-yl)amino)-N-(1-methyl-1H-imidazol-2-yl)benzenesulfonamide], the pIC50 at CDK2/CCNE1 (setting [6]) was over 7.60; at CDK1/CCNB1 (setting [2]), under 6.60; at CDK4/CCND3 (setting [7]), 6.60 to 7.60; on CDK6/CCND1 (setting [8]), 6.60 to 7.60.

Regarding `Cc1c(-c2nccc3cnc(Nc4ccc(S(=O)(=O)Nc5nc(F)cc(F)n5)cc4)cc23)ccc2c1cnn2CC(C)(C)O` [Ex 868, N-(4,6-difluoropyrimidin-2-yl)-4-((5-(1-(2-hydroxy-2-methylpropyl)-4-methyl-1H-indazol-5-yl)-2,6-naphthyridin-3-yl)amino)benzenesulfonamide], the pIC50 at CDK2/CCNE1 (setting [6]) was over 7.60; at CDK1/CCNB1 (setting [2]), under 6.60; at CDK4/CCND3 (setting [3]) it was under 6.60; on CDK6/CCND1 (setting [4]), under 6.60.

For `CCOc1ccc(C#Cc2nccc3cnc(Nc4ccc(S(C)(=O)=O)cc4)cc23)cn1` [Ex 869, 5-((6-ethoxypyridin-3-yl)ethynyl)-N-(4-(methylsulfonyl)phenyl)-2,6-naphthyridin-3-amine], the pIC50 is 6.60 to 7.60 on CDK2/CCNE1 (setting [1]), under 6.60 on CDK1/CCNB1 (setting [2]), under 6.60 at CDK4/CCND3 (setting [3]) and under 6.60 on CDK6/CCND1 (setting [4]).

On to `CS(=O)(=O)c1ccc(Nc2cc3c(C#Cc4ccc(C(F)(F)F)nc4)nccc3cn2)cc1` [Ex 870, N-(4-(methylsulfonyl)phenyl)-5-((6-(trifluoromethyl)pyridin-3-yl)ethynyl)-2,6-naphthyridin-3-amine], for which the pIC50 at CDK2/CCNE1 (setting [5]), at CDK1/CCNB1 (setting [2]), at CDK4/CCND3 (setting [3]) and at CDK6/CCND1 (setting [4]) was under 6.60 throughout.

In the case of `CS(=O)(=O)c1ccc(Nc2cc3c(C#Cc4c(F)cncc4F)nccc3cn2)cc1` [Ex 871, 5-((3,5-difluoropyridin-4-yl)ethynyl)-N-(4-(methylsulfonyl)phenyl)-2,6-naphthyridin-3-amine], the pIC50 on CDK2/CCNE1 (setting [1]) was 6.60 to 7.60; at CDK1/CCNB1 (setting [2]) it was under 6.60; on CDK4/CCND3 (setting [3]) it was under 6.60; on CDK6/CCND1 (setting [4]), under 6.60.

Consider `CS(=O)(=O)c1ccc(Nc2cc3c(C#Cc4cc(F)ncc4F)nccc3cn2)cc1` [Ex 872, 5-((2,5-difluoropyridin-4-yl)ethynyl)-N-(4-(methylsulfonyl)phenyl)-2,6-naphthyridin-3-amine], for which the pIC50 at CDK2/CCNE1 (setting [1]) is 6.60 to 7.60; on CDK1/CCNB1 (setting [2]) it was under 6.60; on CDK4/CCND3 (setting [3]) it was under 6.60; on CDK6/CCND1 (setting [4]) it was under 6.60.

For the molecule `CS(=O)(=O)c1ccc(Nc2cc3c(C#Cc4cncc(F)c4)nccc3cn2)cc1` [Ex 873, 5-((5-fluoropyridin-3-yl)ethynyl)-N-(4-(methylsulfonyl)phenyl)-2,6-naphthyridin-3-amine], the pIC50 is 6.60 to 7.60 on CDK2/CCNE1 (setting [1]), under 6.60 at CDK1/CCNB1 (setting [2]), under 6.60 at CDK4/CCND3 (setting [3]) and under 6.60 at CDK6/CCND1 (setting [4]).

Turning to `CS(=O)(=O)c1ccc(Nc2cc3c(C#Cc4ccc(F)nc4)nccc3cn2)cc1` [Ex 874, 5-((6-fluoropyridin-3-yl)ethynyl)-N-(4-(methylsulfonyl)phenyl)-2,6-naphthyridin-3-amine], the pIC50 on CDK2/CCNE1 (setting [1]) is 6.60 to 7.60; at CDK1/CCNB1 (setting [2]) it was under 6.60; on CDK4/CCND3 (setting [3]) it was under 6.60; at CDK6/CCND1 (setting [4]), under 6.60.

In the case of `CS(=O)(=O)c1ccc(Nc2cc3c(C#Cc4cc(F)c(F)c(F)c4)nccc3cn2)cc1` [Ex 875, N-(4-(methylsulfonyl)phenyl)-5-((3,4,5-trifluorophenyl)ethynyl)-2,6-naphthyridin-3-amine], the pIC50 at CDK2/CCNE1 (setting [5]), on CDK1/CCNB1 (setting [2]), at CDK4/CCND3 (setting [3]) and on CDK6/CCND1 (setting [4]) was under 6.60 throughout.

`CN1CCN(c2ccc(C#Cc3nccc4cnc(Nc5ccc(S(N)(=O)=O)cc5)cc34)cc2)CC1` [Ex 876, 4-((5-((4-(4-methylpiperazin-1-yl)phenyl)ethynyl)-2,6-naphthyridin-3-yl)amino)benzenesulfonamide]: the pIC50 on CDK2/CCNE1 (setting [6]) was over 7.60; at CDK1/CCNB1 (25-250 nM, read-out: CDK1/CCNB IC50, 25-250 nM), 6.60 to 7.60; on CDK4/CCND3 (setting [7]) it was 6.60 to 7.60; at CDK6/CCND1 (setting [8]), 6.60 to 7.60.

In the case of `CC#Cc1nccc2cnc(Nc3ccc(S(=O)(=O)Nc4nccc(N5CCOCC5)n4)cc3)cc12` [Ex 878, N-(4-morpholinopyrimidin-2-yl)-4-((5-(prop-1-yn-1-yl)-2,6-naphthyridin-3-yl)amino)benzenesulfonamide], the pIC50 was 6.60 to 7.60 on CDK2/CCNE1 (setting [1]), under 6.60 on CDK1/CCNB1 (setting [2]), under 6.60 on CDK4/CCND3 (setting [3]) and under 6.60 at CDK6/CCND1 (setting [4]).

With `CC#Cc1nccc2cnc(Nc3ccc(S(=O)(=O)Nc4nccc(OC)n4)cc3)cc12` [Ex 879, N-(4-methoxypyrimidin-2-yl)-4-((5-(prop-1-yn-1-yl)-2,6-naphthyridin-3-yl)amino)benzenesulfonamide], the pIC50 at CDK2/CCNE1 (setting [1]) was 6.60 to 7.60; on CDK1/CCNB1 (setting [2]), under 6.60; at CDK4/CCND3 (setting [3]) it was under 6.60; at CDK6/CCND1 (setting [4]), under 6.60.
